Experimental data as given in ChEMBL document CHEMBL4219147, “Design, synthesis, and structure-activity relationships of novel 4,7,12,12a-tetrahydro-5H-thieno[3',2':3,4]pyrido[1,2-b]isoquinoline and 5,8,12,12a-tetrahydro-6H-thieno[2',3':4,5]pyrido[2,1-a]isoquinoline derivatives as cellular activators of adenosine 5'-monophosphate-activated protein kinase …” (Bioorg Med Chem, 2018).
The source made the active and inactive calls. The rule behind the calls is not given here.

How the values were obtained:
Rattus norvegicus [1] = species on record: Rattus norvegicus; assay: Activation of AMPK in Sprague-Dawley rat primary hepatocytes assessed as inhibition of gluconeogenesis by measuring glucose production after 6 hrs by colorimetric assay
L6 [2] = assay: Upregulation of AMPKalpha phosphorylation at Thr172 residues in Sprague-Dawley rat L6 myotube cells at 5 to 20 uM after 1 hr by Western blot analysis; format: cell-based
Rattus norvegicus [3] = species on record: Rattus norvegicus; assay: Activation of AMPK in Sprague-Dawley rat primary hepatocytes assessed as inhibition of gluconeogenesis by measuring glucose production at 20 uM after 6 hrs by colorimetric assay (reference value: 100 +/- 3.5%); set-up: scale not given: the % may be the effect or the level left
[4] = Cytotoxicity against Sprague-Dawley rat L6 cells assessed as cell viability at 5 uM after 12 hrs by SRB assay (reference value: 100 +/- 1.8%); format: cell-based; details: read-out: Activity
L6 [5] = assay: Activation of AMPK in differentiated Sprague-Dawley rat L6 myotube cells assessed as increase in glucose consumption at 5 to 20 uM after 12 hrs by colorimetric assay relative to berberine; format: cell-based
L6 [6] = assay: Inhibition of mitochondrial respiratory complex 1 in differentiated Sprague-Dawley rat L6 myotube cells assessed as mitochondrial membrane potential at 20 uM after 40 to 60 mins by JC-1 staining based fluorescence assay (reference value: 100 +/- 1.6%); format: cell-based; set-up: scale not given: the % may be the effect or the level left
L6 [7] = assay: Activation of AMPK in differentiated Sprague-Dawley rat L6 myotube cells assessed as glucose consumption at 5 uM after 12 hrs by colorimetric assay (reference value: 100 +/- 1.8%); format: cell-based
[8] = Cytotoxicity against Sprague-Dawley rat L6 cells assessed as cell viability at 20 uM after 12 hrs by SRB assay (reference value: 100 +/- 1.8%); format: cell-based; details: read-out: Activity
L6 [9] = assay: Inhibition of mitochondrial respiratory complex 1 in differentiated Sprague-Dawley rat L6 myotube cells assessed as mitochondrial membrane potential at 10 uM after 40 to 60 mins by JC-1 staining based fluorescence assay (reference value: 100 +/- 1.6%); format: cell-based; set-up: scale not given: the % may be the effect or the level left
L6 [10] = assay: Activation of AMPK in Sprague-Dawley rat L6 myotube cells assessed as increase in acetyl-CoA carboxylase phosphorylation at Ser79 residues at 5 to 20 uM after 1 hr by Western blot analysis; format: cell-based
L6 [11] = assay: Activation of AMPK in differentiated Sprague-Dawley rat L6 myotube cells assessed as glucose consumption at 20 uM after 12 hrs by colorimetric assay (reference value: 100 +/- 1.8%); format: cell-based
Rattus norvegicus [12] = species on record: Rattus norvegicus; assay: Activation of AMPK in Sprague-Dawley rat primary hepatocytes assessed as inhibition of gluconeogenesis by measuring glucose production at 10 uM after 6 hrs by colorimetric assay (reference value: 100 +/- 3.5%); set-up: scale not given: the % may be the effect or the level left
L6 [13] = assay: Activation of AMPK in differentiated Sprague-Dawley rat L6 myotube cells assessed as increase in glucose consumption at 5 to 20 uM after 12 hrs by colorimetric assay relative to control; format: cell-based
L6 [14] = assay: Activation of AMPK in differentiated Sprague-Dawley rat L6 myotube cells assessed as glucose consumption at 10 uM after 12 hrs by colorimetric assay (reference value: 100 +/- 1.8%); format: cell-based
[15] = Cytotoxicity against Sprague-Dawley rat L6 cells assessed as cell viability at 10 uM after 12 hrs by SRB assay (reference value: 100 +/- 1.8%); format: cell-based; details: read-out: Activity
Rattus norvegicus [16] = species on record: Rattus norvegicus; assay: Activation of AMPK in Sprague-Dawley rat primary hepatocytes assessed as inhibition of gluconeogenesis by measuring glucose production at 5 uM after 6 hrs by colorimetric assay (reference value: 100 +/- 3.5%); set-up: scale not given: the % may be the effect or the level left
L6 [17] = assay: Inhibition of mitochondrial respiratory complex 1 in differentiated Sprague-Dawley rat L6 myotube cells assessed as mitochondrial membrane potential at 5 uM after 40 to 60 mins by JC-1 staining based fluorescence assay (reference value: 100 +/- 1.6%); format: cell-based; set-up: scale not given: the % may be the effect or the level left

Row | Compound | inhibition (Rattus norvegicus [1]) | Activity (L6 [2]) | Activity (Rattus norvegicus [3]) [%] | viability at 12 h, 5 µM [4] [%] | fold change (FC) (L6 [5]) | Activity (L6 [6]) [%] | Activity (L6 [7]) [%] | viability at 12 h, 20 µM [8] [%] | Activity (L6 [9]) [%] | Activity (L6 [10]) | Activity (L6 [11]) [%] | Activity (Rattus norvegicus [12]) [%] | fold change (FC) (L6 [13]) | Activity (L6 [14]) [%] | viability at 12 h, 10 µM [15] [%] | Activity (Rattus norvegicus [16]) [%] | Activity (L6 [17]) [%]
1 | COc1ccc(OC)c2c1CC1c3cc(C(C)c4ccccc4)sc3CCN1C2 (stereo unspecified) | Dose-dependent effect | Active | 36 | 101 | 2.3 | 66 | 244 | 101 | 76.6 | Active | 246 | 39.5 | 2.3 to 2.9 | 264 | 102 | 43.4 | 86.6
2 | COc1ccc(OC)c2c1CC1c3cc(Cc4ccc(C)cc4)sc3CCN1C2 (stereo unspecified) | Dose-dependent effect | Active | 55.7 | 100 | 2.3 | 49 | 222 | 107 | 57.7 | Active | 238 | 65 | 2.3 to 2.9 | 230 | 106 | 73.3 | 67.7
3 | N#CC(C#N)=NNc1cccc(Cl)c1 | – | – | – | – | – | – | – | – | 42.9 | – | – | – | – | – | – | – | –
4 | COc1ccc(OC)c2c1CC1c3cc(Cc4ccc(N5CCOCC5)cc4)sc3CCN1C2 (stereo unspecified) | – | – | – | 97.7 | – | – | 97.1 | 98.9 | – | – | 157 | – | 1.4 | 137 | 99.2 | – | –
5 | COc1ccc(OC)c2c1CC1c3cc(Cc4ccc(N5CCN(C)CC5)cc4)sc3CCN1C2 (stereo unspecified) | – | – | – | 106 | – | – | 168 | 107 | – | – | 181 | – | 1.7 | 169 | 104 | – | –
6 | COc1ccc(OC)c2c1CC1c3cc(Cc4ccc(C(F)(F)F)cc4)sc3CCN1C2 (stereo unspecified) | – | – | – | 102 | – | – | 156 | 100 | – | – | 229 | – | 1.9 | 189 | 101 | – | –
7 | COc1ccc(OC)c2c1CC1c3cc(Cc4ccc(N(C)C)cc4)sc3CCN1C2 (stereo unspecified) | – | – | – | 110 | – | – | 200 | 107 | – | – | 230 | – | 2 | 201 | 108 | – | –
8 | COc1ccc(OC)c2c1CC1c3cc(Cc4ccc(S(C)(=O)=O)cc4)sc3CCN1C2 (stereo unspecified) | – | – | – | 101 | – | – | 128 | 101 | – | – | 97.9 | – | 1.1 | 106 | 102 | – | –
9 | C=CCOc1ccc(Cc2cc3c(s2)CCN2Cc4c(OC)ccc(OC)c4CC32)cc1 (stereo unspecified) | Dose-dependent effect | Active | 49 | 99.4 | 2.3 | 54 | 213 | 98.7 | 72.8 | Active | 265 | 49.6 | 2.1 to 2.7 | 249 | 102 | 58.7 | 83.7
10 | COc1ccc(OC)c2c1CC1c3cc(Cc4cccc(C)c4)sc3CCN1C2 (stereo unspecified) | Dose-dependent effect | Active | 47.5 | 99.6 | – | 67.6 | 237 | 101 | 77.8 | Active | 251 | 65.6 | – | 266 | 99 | 82.7 | 84.5
11 | COc1ccc(OC)c2c1CC1c3cc(Cc4ccc(N5CCCCC5)cc4)sc3CCN1C2 (stereo unspecified) | Dose-dependent effect | Active | 43 | 103 | – | 58.5 | 214 | 102 | 71.7 | Active | 270 | 46.7 | 2.5 | 252 | 101 | 51.6 | 82.8
12 | COc1ccc(OC)c2c1CC1c3cc(Cc4ccc(F)cc4)sc3CCN1C2 (stereo unspecified) | Dose-dependent effect | Active | 60.6 | 98.8 | 2.3 | 62.9 | 216 | 100 | 76 | Active | 235 | 83.4 | 2.3 to 2.9 | 238 | 98.2 | 96.7 | 82.8
13 | COc1ccc(OC)c2c1CC1c3cc(Cc4cc(OC)c(OC)c(OC)c4)sc3CCN1C2 (stereo unspecified) | – | – | – | 95.3 | – | – | 174 | 104 | – | – | 184 | – | 1.9 | 188 | 104 | – | –
14 | COc1ccc(OC)c2c1CC1c3cc(Cc4ccc5c(c4)CCO5)sc3CCN1C2 (stereo unspecified) | – | – | – | 101 | – | – | 200 | 103 | – | – | 212 | – | 2.1 to 2.7 | 212 | 103 | – | –
15 | COc1ccc(OC)c2c1CC1c3cc(Cc4nccs4)sc3CCN1C2 (stereo unspecified) | – | – | – | 104 | – | – | 134 | 103 | – | – | 167 | – | 1.3 to 1.5 | 152 | 103 | – | –
16 | COc1ccc(OC)c2c1CC1c3cc(Cc4ccc(Br)cc4)sc3CCN1C2 (stereo unspecified) | – | – | – | 101 | – | – | 169 | 101 | – | – | 242 | – | 1.9 | 187 | 105 | – | –
17 | COc1ccc(OC)c2c1CC1c3cc(Cc4ccncc4)sc3CCN1C2 (stereo unspecified) | – | – | – | 105 | – | – | 111 | 104 | – | – | 153 | – | 1.3 to 1.5 | 130 | 110 | – | –
18 | COc1ccc(OC)c2c1CC1c3cc(Cc4ccc(NC(C)=O)cc4)sc3CCN1C2 (stereo unspecified) | – | – | – | 96.2 | – | – | 121 | 94.9 | – | – | 142 | – | 1.3 | 130 | 97.2 | – | –
19 | COc1cccc(Cc2cc3c(s2)CCN2Cc4c(OC)ccc(OC)c4CC32)c1 (stereo unspecified) | Dose-dependent effect | Active | 38.1 | 100 | 2.3 | 59.2 | 245 | 100 | 72.8 | Active | 243 | 58.8 | 2.1 to 2.7 | 242 | 94.9 | 73.2 | 76.3
20 | COc1ccc(OC)c2c1CC1c3cc(Cc4ccccn4)sc3CCN1C2 (stereo unspecified) | – | – | – | 104 | – | – | 140 | 103 | – | – | 172 | – | 1.3 to 1.5 | 148 | 103 | – | –
